{"source": "patent US20220184091A1", "about": "“Methods of Treating Cancer with Chk1 Inhibitors” (Sierra Oncology, Inc., priority 2019, published 2022)", "key": {"[1]": {"test_system": "IFNβ, CXCL10 and CCL5", "experiment": "qPCR of IFNβ, CXCL10 and CCL5 in resected RPP tumors", "format": "in vivo, mouse", "protocol": "Data presented as mean±SD and p values by t-test * p<0.05, **p<0.01, ***p<0.001.\nReal-time PCR was done using SYBR Select Master Mix (Life Technologies, cat #4472908) according to the manufacturer's protocol. Primers were purchased from Sigma Aldrich, Inc. Triplicate PCR reactions were run on ABI (7500 Fast Real Time PCR System). The comparative Ct method using the average 2ΔΔCT value for each set of triplicates was used, and the average of the biological replicates was calculated. Negative controls were included for every primer set, and GAPDH was used as the […]."}, "[2]": {"test_system": "EMT6/P", "experiment": "Micronuclei assay, EMT6/P", "format": "cell-based", "details": "1 μM, 24 hours or 48 hours", "protocol": "H69 cells were cultured as discussed earlier and treated with or without SRA737 (1 μM). Cytochalasin B was added at 20th hour to each culture to give a final concentration of 3 μg/ml and the culture was incubated at 37° C. for up to 24 hrs. After 24 hrs incubation, the cells were centrifuged at 1000 rpm for 5 min. The supernatant was removed and the pellet was treated with weak hypotonic solution (0.075 M KCl/0.9% Saline, 1:9) and incubated at 37° C. for 5 min. After this, the cells were centrifuged and the pellets were fixed in fresh fixative (methanol:acetic acid, 3:1). Cells were dropped onto glass slides were prepared and stained with ProLong® Gold Antifade Mountant with DAPI. In the case of EMT-6 cells, micronuclei formation assays were performed at Phenovista Biosciences, San Diego. The cells were treated with either 1 μM or 5 μM SRA737 for 24h followed by mixing with 4% PFA for 20 minutes at RT directly in the culture wells, washing with PBS and staining with Hoechst (1:1000). The plates were imaged at 40× using the Thermo Fisher Scientific CellInsight CX7 imaging system and the micronuclei algorithm was adjusted to score all nuclei that are <55% of the size of the main nucleus. A total of 25 fields per well were imaged and the data was averaged across 8 replicates.\nSRA737 was also evaluated for induced cytogenetic stress using a micronuclei (MN) assay."}, "[3]": {"test_system": "human hepatocytes", "experiment": "Stability and metabolites in cryopreserved hepatocytes, human", "format": "in vitro ADME", "details": "10 μM, up to 4 hours", "protocol": "The formation of SRA737-related metabolites was determined in cryopreserved hepatocytes from human, mouse, rat, dog, minipig and monkey samples after incubation with SRA737 at a nominal concentration of 10 μM for up to 4 hours. […] In the human hepatocyte preparation, approximately 67% of the parent remained after 4 hours of incubation compared to 75% and 7% in the rat and minipig preparations, respectively. Eight human SRA737 metabolites were observed. All SRA737 metabolites formed by human hepatocytes were also formed by monkey hepatocytes. Six metabolites were present at equal or greater abundance in the monkey."}, "[4]": {"test_system": "CD4+ and CD8+ cells", "experiment": "CD4 and CD8 IHC staining in MC38 tumors", "format": "in vivo, mouse", "details": "after 14 days, SRA737 7-days-on/7-days-off, antibody Days 3, 7 and 11", "protocol": "Measurements were taken post treatment on day 15.\nFor immunohistochemistry, cryosections (8 μm) of tumor tissues were fixed with acetone and stained with antibody against mouse CD4 (Sinobiological, Cat. no. 50134-R001) and CD8 (eBioscience, Cat. No. 14-0808-82) and horseradish peroxidase-conjugated secondary antibody. The image of the entire stained tumor section was scanned with an Olympus BX41 microscope and a semi-quantitative immunohistochemical score was determined by visual examination of the entire stained section of the tumor. The score between 0-6 was assigned by taking into consideration the intensity of positive staining within the tumor section and the prevalence of positive staining within the entire tumor section.\nThe MC38 tumors were then harvested after 14 days of treatment with SRA737 monotherapy and its combination therapy with an […] (Days 3, 7 and 11) according to a modified dosing regimen of 7-days-on/7-days-off to determine the infiltration of CD4+ and CD8+ cells by immunohistochemistry staining. […] The tumor growth inhibition under this altered dosing regimen was 61% in SRA737 monotherapy and 63% in the combination therapy of SRA737 and anti-PD-1. […]"}, "[5]": {"test_system": "5637", "experiment": "Cell viability, bladder cancer line 5637", "format": "cell-based"}, "[6]": {"experiment": "SRA737 plasma and tumor concentrations in HT29 xenograft model", "format": "in vivo", "details": "mouse, oral", "protocol": "For each dose, columns from left to right are concentrations in plasma at 6 hours, plasma at 24 hours, tumor at 6 hours, and tumor at 24 hours, respectively.\nThe effect of SRA737 on Gemcitabine induced Chk1 S296 autophosphorylation was assessed as described in Walton et al. (Oncotarget. 2016 Jan. 19; 7(3): 2329-2342), herein incorporated by reference for all it teaches. Briefly, mice bearing HT29 tumor xenografts were administered (i) vehicle control or (ii) gemcitabine (100 mg/kg in saline, IV) or ([…]) and gemcitabine (100 mg/kg) with SRA737 administered 24 hours following gemcitabine administration (n=3 per time point per treatment). […] Exposure in the tumor was greater than 10-fold higher than in plasma. The circulating plasma concentration at this 24-hour timepoint corresponded to a free drug concentration of approximately 6 nM (2 ng/mL) based on plasma protein binding in mice of 94%."}}, "note": "pIC50: −log10 of the molar value. Where two headings read alike, the source gives them in different places.", "data": [{"smiles": "N#Cc1cnc(Nc2cc(NCC3CNCCO3)c(C(F)(F)F)cn2)cn1", "note": "(stereo not drawn) [SRA737, 5-[[4-[[morpholin-2-yl]methylamino]-5-(trifluoromethyl)-2-pyridyl]amino]pyrazine-2-carbonitrile]", "values": [{"measurement": "gene expression levels of IFNβ, CXCL10 and CCL5 vs vehicle", "setting": "[1]; RPP tumors at Day 21, 100 mg/kg 5-days-on/2-days-off", "result": "higher gene expression levels"}, {"measurement": "expression of IFNβ, CCL5 and CXCL10", "setting": "[1]; RPP tumors resected at Day 21, SRA737 2-days-on/5-days-off", "result": "Neither LDG nor SRA737 monotherapy (2-days-on/5-days-off) showed any significant effect"}, {"measurement": "micronuclei formation", "setting": "[2]", "result": "led to micronuclei formation"}, {"measurement": "human SRA737 metabolites observed", "setting": "[3]", "result": "Eight"}, {"measurement": "infiltration of CD4+ and CD8+ cells into the tumors", "setting": "[4]", "result": "significant increase"}, {"measurement": "pIC50", "setting": "[5]", "result": 5.68}, {"measurement": "concentration at 6 h", "setting": "[6]; plasma, HT29 xenograft, Dose 12.5 mg/kg, read-out: Plasma (6 h)", "result": 1.01, "unit": "µM"}, {"measurement": "concentration at 24 h", "setting": "[6]; plasma, HT29 xenograft, Dose 12.5 mg/kg, read-out: Plasma (24 h)", "result": 0.0777, "unit": "µM"}, {"measurement": "concentration at 6 h", "setting": "[6]; plasma, HT29 xenograft, Dose 25 mg/kg, read-out: Plasma (6 h)", "result": 2.52, "unit": "µM"}, {"measurement": "concentration at 24 h", "setting": "[6]; plasma, HT29 xenograft, Dose 25 mg/kg, read-out: Plasma (24 h)", "result": 0.893, "unit": "µM"}, {"measurement": "concentration at 6 h", "setting": "[6]; plasma, HT29 xenograft, Dose 50 mg/kg, read-out: Plasma (6 h)", "result": 3.96, "unit": "µM"}, {"measurement": "concentration at 24 h", "setting": "[6]; plasma, HT29 xenograft, Dose 50 mg/kg, read-out: Plasma (24 h)", "result": 0.512, "unit": "µM"}, {"measurement": "concentration at 6 h", "setting": "[6]; plasma, HT29 xenograft, Dose 100 mg/kg, read-out: Plasma (6 h)", "result": 5.84, "unit": "µM"}, {"measurement": "concentration at 24 h", "setting": "[6]; plasma, HT29 xenograft, Dose 100 mg/kg, read-out: Plasma (24 h)", "result": 1.67, "unit": "µM"}, {"measurement": "concentration at 24 h", "setting": "[6]; plasma, mice, PK/PD benchmark", "result": "> 0.1", "unit": "µM"}, {"measurement": "concentration at 6 h", "setting": "[6]; tumor, HT29 xenograft, Dose 3.125 mg/kg, read-out: Tumor (6 h)", "result": 3.18, "unit": "µM"}, {"measurement": "concentration at 24 h", "setting": "[6]; tumor, HT29 xenograft, Dose 3.125 mg/kg, read-out: Tumor (24 h)", "result": 0.646, "unit": "µM"}, {"measurement": "concentration at 6 h", "setting": "[6]; tumor, HT29 xenograft, Dose 6.25 mg/kg, read-out: Tumor (6 h)", "result": 4.01, "unit": "µM"}, {"measurement": "concentration at 24 h", "setting": "[6]; tumor, HT29 xenograft, Dose 6.25 mg/kg, read-out: Tumor (24 h)", "result": 0.966, "unit": "µM"}, {"measurement": "concentration at 6 h", "setting": "[6]; tumor, HT29 xenograft, Dose 12.5 mg/kg, read-out: Tumor (6 h)", "result": 19, "unit": "µM"}, {"measurement": "concentration at 24 h", "setting": "[6]; tumor, HT29 xenograft, Dose 12.5 mg/kg, read-out: Tumor (24 h)", "result": 3.97, "unit": "µM"}, {"measurement": "concentration at 6 h", "setting": "[6]; tumor, HT29 xenograft, Dose 25 mg/kg, read-out: Tumor (6 h)", "result": 37.5, "unit": "µM"}, {"measurement": "concentration at 24 h", "setting": "[6]; tumor, HT29 xenograft, Dose 25 mg/kg, read-out: Tumor (24 h)", "result": 16.3, "unit": "µM"}, {"measurement": "concentration at 6 h", "setting": "[6]; tumor, HT29 xenograft, Dose 50 mg/kg, read-out: Tumor (6 h)", "result": 76.3, "unit": "µM"}, {"measurement": "concentration at 24 h", "setting": "[6]; tumor, HT29 xenograft, Dose 50 mg/kg, read-out: Tumor (24 h)", "result": 27.5, "unit": "µM"}, {"measurement": "concentration at 6 h", "setting": "[6]; tumor, HT29 xenograft, Dose 100 mg/kg, read-out: Tumor (6 h)", "result": 132, "unit": "µM"}, {"measurement": "concentration at 24 h", "setting": "[6]; tumor, HT29 xenograft, Dose 100 mg/kg, read-out: Tumor (24 h)", "result": 102, "unit": "µM"}]}]}
